Test results as given in publication PMC6396024, “Artemin and an Artemin-Derived Peptide, Artefin, Induce Neuronal Survival, and Differentiation Through Ret and NCAM” (Frontiers in Molecular Neuroscience, 2019).
Ends that are not written are not given here.

Experiments:
[1] = system: NCAM; cerebellar granule neurons (CGNs); assay: Neurite outgrowth in CGNs with NCAM knock down (NCAM shRNA); format: cell-based, Wistar rat; conditions: 24 h, P2-d 8 μg/ml, ARTN 0.21 nM, artefin 1.4 μM
Experimental: (§1) Cerebellar granule neurons (CGNs) were prepared from 7-day-old Wistar rat pups (Charles River Laboratories, Sulzfeld, Germany) as previously described ([Schousboe et al., 1989]). Briefly, pups were decapitated, and the cerebellum was removed and cleared from blood vessels and meninges in ice-cold modified Krebs-Ringer buffer. The cerebellum was dissociated by chopping and trypsinization. Cells were washed in Krebs-Ringer buffer containing DNAse I (Sigma, St. Louis, MO, United States) and soybean trypsin inhibitor (Sigma) to stop trypsinization, and the remaining tissue pieces were pelleted by centrifugation. Cells were then washed in Krebs-Ringer buffer containing Ca^2+ and Mg^2+ and re-suspended in appropriate Neurobasal^TM medium (Invitrogen, Taastrup, Denmark) with supplements depending on the experiment.
(§2) To evaluate the involvement of NCAM and RET in neurite outgrowth induced by either ARTN or artefin, CGNs (3 × 10^6 per transfection) were transfected with 3 μg DNA using a Nucleofector^TM 2b device and a Rat Neuron Nucleofector Kit (Amaxa, Inc., Gaithersburg, MD, United States). A kinase-deleted dominant negative RET insert was obtained by direct PCR using a commercially available clone (IRAKp961P02132Q; RZPD, Berlin, Germany) encoding full-length mouse RET coding sequence 586–3807 nt. as template. The upper primer […] contained a NheI restriction site and Kozak sequence, and the lower primer […] encoded Streptag II and NotI restriction sites. The dominant negative RET insert and the pcDNA5/FRT expression vector containing the Flp-In system were cut with NheI and NotI restriction enzymes, purified, ligated using the Rapid DNA Ligation Kit (Roche, Basel, Switzerland), and transfected into One Shot TOP10 E. coli (Invitrogen, Taastrup, Denmark). E. coli colonies containing the dominant negative RET insert were identified by PCR, and one insert-positive colony was used for plasmid purification. The identity of the purified plasmid was verified by restriction cutting and sequencing of the insert. For NCAM knock down, we used a pENTR vector containing the shRNA expression cassette for NCAM knock down ([Hansen et al., 2007]). An empty vector was used as a control. To identify transfected neurons, all transfections were performed as co-transfections with 0.5 μg pEGFP-N1, an expression vector encoding the enhanced variant of green fluorescent protein (GFP; Clontech, Palo Alto, CA, United States). Transfected CGNs were seeded in Neurobasal^TM-A medium supplemented with 2% (v/v) B27, 5% (v/v) FCS, and 2 mM Glutamax at a density of 1 × 10^5 cells/cm^2.
(§3) To estimate neurite outgrowth, neurons were fixated 24 h after stimulation and stained with rabbit anti-growth-associated-protein-43 (GAP-43) antibody (Chemicon International, Inc., Temecula, CA, United States) or anti-GFP antibody (for transfection experiment) overnight at 4°C followed by incubation with secondary Alexa-conjugated goat anti-rabbit antibodies (Invitrogen, Taastrup, Denmark). In case of experiments with plasmid transfection, the transfection efficiency was ca. 20% of total cells and the neurite outgrowth was evaluated only in GFP-positive, i.e., transfected, cells. For representative pictures, cells were additionally co-stained with Hoechst 33258.
(§4) Computer-assisted fluorescent microscopy was performed using a Nikon Diaphot 300 inverted microscope (Nikon) equipped with a Nikon Plan 20× objective and coupled to a video camera (Grundig Electronics, Germany). For each condition in each experiment, including the experiment with transfections, images of approximately 200 cells were recorded in systematic series of fields of view, and neurite outgrowth was quantified using a stereological approach as previously described ([Rønn et al., 2000]).
(§5) FIGURE 7 Neuritogenic effect of ARTN and artefin in (A) dominant negative RET or (B) knock down NCAM-expressing CGNs. […]

[2] = system: FGFR; cerebellar granule neurons (CGNs); assay: Neurite outgrowth in CGNs with FGFR-inhibitor SU5402; format: cell-based, Wistar rat; conditions: p < 0.01
Experimental: as §1
Cerebellar granule neurons CGNs were re-suspended in Neurobasal^TM medium supplemented with 2% (v/v) B27, 0.5% (v/v) glutamax, 100 U/ml penicillin, 100 μg/ml streptomycin, 0.4% (w/v) BSA, and 20 mM HEPES and were seeded in 8-well LabTek Permanox chamber slides (Nunc) at a density of 1 × 10^4 cells/cm^2. Various concentrations of ARTN, artefin, scrambled artefin, or reversed artefin were added to neurons immediately after seeding. For the RET inhibition assay, the inhibitory goat anti-mouse RET antibody (4.1 μg/ml; R&D systems, Abingdon, United Kingdom) or control goat IgG (4.1 μg/ml; Santa Cruz Biotechnology, Dallas, TX, United States) were added to neurons 1 h before stimulation with ARTN (0.042 nM) […]. For the competition assay between growth factor and mimetic peptide, a combination of ARTN (2.1 nM) and artefin (4.2 μM) was added to the cells immediately after seeding. […]
as §3, with “For representative pictures, cells were additionally co-stained with Hoechst 33258.” left out
as §4, with “2000]). […]” for “2000]).”

[3] = system: RET; cerebellar granule neurons (CGNs); assay: Neurite outgrowth in CGNs transfected with dominant negative RET (dnRET); format: cell-based, Wistar rat; conditions: 24 h, P2-d 8 μg/ml, ARTN 0.21 nM, artefin 1.4 μM
Experimental: as §1, §2, §3, §4, §5

[4] = system: cerebellar granule neurons (CGNs); assay: Survival assay of CGNs induced to undergo apoptosis by potassium withdrawal; format: cell-based, Wistar rat; conditions: 50 ng/ml, 48 h, 5 mM KCl; p < 0.0001; positive control
Experimental: as §1
Cerebellar granule neurons were re-suspended in Neurobasal^TM-A medium supplemented with 2% (v/v) B27 (Invitrogen, Taastrup, Denmark), 0.5% (v/v) glutamax, 100 U/ml penicillin, 100 μg/ml streptomycin, and 40 mM KCl, and seeded at a density of 1 × 10^5 cells/well in 8-well LabTek Permanox chamber slides (Nunc, Roskilde, Denmark) coated with poly-L-lysine (10 μg/ml). To avoid proliferation of non-neuronal cells, cytosine-β-D-arabinofuranoside (Sigma) was added to cells 24 h after plating. CGNs were allowed to differentiate for 7 days in vitro (DIV) in the presence of 40 mM KCl before being induced to undergo apoptosis by changing the medium to one containing only 5 mM KCl (apoptotic medium) ([D’Mello et al., 1993]). At 7 DIV, cells were washed and stimulated with serially diluted ARTN or artefin diluted in the apoptotic medium. Three different controls were included; (1) cells grown in medium containing 40 mM KCl served as a positive control; (2) cells grown in medium containing 5 mM KCl served as a negative control; (3) cells grown in medium containing 5 mM KCl supplemented with 50 ng/ml insulin growth factor-1 (IGF-1) (Life Technology), a known anti-apoptotic factor for CGNs in this setup ([Galli et al., 1995]). After 48 h following the induction of apoptosis, cells were fixated in 4% formaldehyde for 30 min, and nuclear morphology was visualized with Hoechst 33258 staining (Invitrogen, Taastrup, Denmark) (Figure 2A). Images of cells were obtained using a Nikon Diaphot 200 fluorescent microscope equipped with a Nikon Plan 40× objective (Nikon, Tokyo, Japan) and coupled to a black-white video camera. Images of at least 1000 cells/well in different fields of view were analyzed, and the percentage of viable neurons was estimated as the ratio of live cells (non-pyknotic cells with dispersed chromatin) to the total number of neurons.
FIGURE 2 Effect of ARTN and artefin on survival of cerebellar granular neurons (CGNs) induced to undergo apoptosis. CGNs were differentiated for 7 days in the presence of 40 mM KCl before apoptosis was induced by potassium withdrawal. (A) Nuclear morphology of CGNs after Hoechst 33258 staining. […] Scale bar: 100 μm. Cells were grown for 48 h in media, containing 40 mM KCl, apoptotic medium (5 mM KCl) or apoptotic medium supplemented with 50 ng/ml IGF-1 (positive control) (B), serially diluted ARTN (C), or artefin (D). Each experiment was performed in the presence of the three controls (40 mM KCl, 5 mM KCl, and 5 mM KCl plus IGF-1), and the survival effect of the growth factor and the peptide was compared to its own apoptotic control (5 mM KCl). Results from the five experiments are expressed as percentage of 40 mM KCl control set at 100% and presented as mean ± SEM. The anti-apoptotic effect of ARTN and artefin was tested using Student’s paired t-test, where ^∗p < 0.05; ^∗∗p < 0.01; ^∗∗∗p < 0.001; ^∗∗∗∗p < 0.0001.

[5] = system: cerebellar granule neurons (CGNs); assay: Neurite outgrowth assay in CGNs; format: cell-based, Wistar rat; conditions: 24 h; ARTN 0.013–2.1 nM; artefin 0.16–37.9 μM; one-way ANOVA
Experimental: as §1
Cerebellar granule neurons CGNs were re-suspended in Neurobasal^TM medium supplemented with 2% (v/v) B27, 0.5% (v/v) glutamax, 100 U/ml penicillin, 100 μg/ml streptomycin, 0.4% (w/v) BSA, and 20 mM HEPES and were seeded in 8-well LabTek Permanox chamber slides (Nunc) at a density of 1 × 10^4 cells/cm^2. Various concentrations of ARTN, artefin, scrambled artefin, or reversed artefin were added to neurons immediately after seeding. For the RET inhibition assay, the inhibitory goat anti-mouse RET antibody (4.1 μg/ml; R&D systems, Abingdon, United Kingdom) or control goat IgG (4.1 μg/ml; Santa Cruz Biotechnology, Dallas, TX, United States) were added to neurons 1 h before stimulation with ARTN (0.042 nM) […]. For the competition assay between growth factor and mimetic peptide, a combination of ARTN (2.1 nM) and artefin (4.2 μM) was added to the cells immediately after seeding. To inhibit Fibroblast growth factor receptor (FGFR) pharmacologically, inhibitor of FGFR, SU5402 (Sigma), was added to the growth medium in serial dilutions of 20, 40, and 80 μM immediately after plating of CGNs, followed by addition of either P2-d (8 μg/ml), ARTN (0.21 nM), or artefin (1.4 μM) 1 h after the plating.
as §3, §4
FIGURE 3 Neurite outgrowth induced by ARTN (A), artefin-dendrimer (B), and artefin-monomer (C) in CGNs. Cells were stimulated with ARTN (0.013, 0.042, 0.13, 0.42, and 2.1 nM) or artefin (0.16, 0.47, 1.4, 4.2, 12.6, and 37.9 μM) for 24 h. For the unstimulated control, the absolute length of neurites was 11.47 ± 1.5 μm. Results from four independent experiments are expressed as percentage of untreated control set to 100% and presented as mean ± SEM. The mean neurite outgrowth lengths were compared using one-way ANOVA for repeated measurements. The effect of individual concentrations of ARTN and artefin was compared to control using one-way ANOVA with Dunnett’s post-hoc test, ^∗p < 0.05; ^∗∗p < 0.01. […]

[6] = target: T1, recombinant rat NCAM Ig1–3 (rat, UniProt P13596 20-308); assay: SPR; Biacore 2000, 25°C, HBS-EP (10 mM HEPES pH 7.4, 150 mM NaCl, 3 mM EDTA, 0.005% P20); ARTN (~2300 RU) or artefin (~1600 RU) amine-coupled on a CM4 chip; serially diluted GFRα3/Fc or NCAM Ig1–3 injected at 20 μl/min; 1:1 interaction model or steady-state affinity analysis; conditions: both partners purified
T1 construct: neural cell adhesion molecule (NCAM), rat, Ig1–3 domains; also called NCAM Ig1–3 domain; source: recombinant, produced as described previously (Soroka et al., 2003)
T1 sequence (P13596 20-308): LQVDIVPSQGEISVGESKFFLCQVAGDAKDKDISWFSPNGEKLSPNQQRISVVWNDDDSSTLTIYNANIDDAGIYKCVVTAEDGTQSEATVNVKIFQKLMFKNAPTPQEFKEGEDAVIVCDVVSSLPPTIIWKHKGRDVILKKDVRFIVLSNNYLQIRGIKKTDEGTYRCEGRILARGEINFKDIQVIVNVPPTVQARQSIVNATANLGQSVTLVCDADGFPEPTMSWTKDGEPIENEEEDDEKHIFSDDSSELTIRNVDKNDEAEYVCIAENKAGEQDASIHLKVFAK

[7] = target: T2, recombinant human GFRα3/Fc (human, UniProt O60609 32-374); assay: as above; conditions: both partners purified
T2 construct: GDNF family receptor alpha-3 (GFRα3), human; Commercial Fc chimera; also called GFL receptor α3; source: bought: R&D Systems
T2 sequence (looked up): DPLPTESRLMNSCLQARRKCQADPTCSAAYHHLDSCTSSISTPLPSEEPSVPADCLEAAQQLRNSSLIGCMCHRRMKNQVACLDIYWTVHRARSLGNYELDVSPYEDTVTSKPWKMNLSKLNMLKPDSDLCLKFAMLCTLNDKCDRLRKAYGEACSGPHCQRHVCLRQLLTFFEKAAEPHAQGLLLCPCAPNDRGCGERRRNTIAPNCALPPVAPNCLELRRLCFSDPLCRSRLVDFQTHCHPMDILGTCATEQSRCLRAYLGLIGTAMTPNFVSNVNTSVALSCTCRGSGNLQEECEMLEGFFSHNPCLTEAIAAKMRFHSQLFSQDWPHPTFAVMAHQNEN

GRILARGEINFK [P2-d, reference compound] was tested, and the “neurite outgrowth in NCAM knock down neurons” value ([1]; NCAM shRNA) was “eliminated in neurons transfected with NCAM shRNA (p < 0.01”, the “neurite outgrowth in mock-transfected neurons” value ([1]; empty vector, versus control) was “increased neurite outgrowth in mock-transfected neurons (p < 0.05)” and the “neurite outgrowth with 80 μM FGFR inhibitor” value ([2]; P2-d 8 μg/ml with 80 μM inhibitor) was “significantly attenuated”. For the same molecule, the “neurite outgrowth in the absence of SU5402” value ([2]; P2-d 8 μg/ml) was “promoted neurite outgrowth in the absence of SU5402 (p < 0.01)”, the “neurite outgrowth in dnRET-transfected neurons” value ([3]; dnRET) was “significantly increased the level of neurite outgrowth in mock-transfected neurons as well as in neurons transfected with the vector encoding dnRET (p < 0.05” and the “neurite outgrowth in mock-transfected neurons” value ([3]; empty vector, versus control) was “significantly increased the level of neurite outgrowth in mock-transfected neurons”.

For “IGF-1: insulin growth factor-1 (Life Technology), a known anti-apoptotic factor for CGNs [reference compound]”, the “neuronal survival (rescue from apoptosis by potassium withdrawal)” value [4] was “significantly increased the number of CGNs rescued from the apoptosis”.

“RSPHDLSLASLLGAG [artefin in monomer form]” was tested, and the overall neuritogenic effect [5] was “did not demonstrate any significant neurite outgrowth”.

B1: artefin, ARTN-derived peptide synthesized as a tetramer (dendrimer) on a lysine backbone (peptide)
peptide: RSPHDLSLASLLGAG
modifications: also: tetramer: four monomers coupled to a lysine backbone
notes: amino acids 166-180 of human ARTN (UniProt D3DPX9), heel region; also called artefin-dendrimer; artefin-d; source: synthetic peptide (Schafer-N, Copenhagen; solid-phase Fmoc chemistry)
B1 showed a Kd [6] of 2800 nM and a Kd [7] of 2.9 nM.
